Test results as given in the NIST ThermoML archive (doi:10.1016/j.jct.2009.05.019).
Numbers after ± are expanded uncertainties.

Assay: molar enthalpy of vaporization or sublimation
Conditions: 298.15 K; Crystal; Calvet microcalorimetry

c1ccc2c(c1)sc1ccccc12 [dibenzothiophene]
molar enthalpy: 22.3 ± 0.239 kcal/mol
